System: non-replicating M. tuberculosis, luciferase reporter
Experiment: inhibitors of non-replicating M. tuberculosis, dose response, luciferase, dry powder (AID 651620)

## [N-]=[N+]=NCCOCCNC(=O)CCCn1cc(CS(=O)c2nnc(-c3ccc(F)cc3)o2)nn1 (stereo unspecified)
  IC90: 125 µM
